We go through eleven compounds from patent publication US10112907B2, “Substituted indazoles for treating tendon and/or ligament injuries” (NOVARTIS AG, priority 2016, dated 2018).

Assay [1] deals with collagen type I (Col1a2) gene expression in rat tail tendon fascicles. The assay can be described thus: Ex vivo assay, Col1a2 mRNA in tendon fascicles (qPCR). The assay is classed as cell-based, Sprague Dawley rat.
For assay [2], the system named is Scleraxis (Scx) gene expression in rat tail tendon fascicles. Put plainly: Ex vivo assay, Scx mRNA in tendon fascicles (qPCR). The assay is classed as cell-based, Sprague Dawley rat.
Assay [3] has as its system Scleraxis (Scx) gene transcriptional activation in TT-D6 Scx-luciferase (ScxL) cell line. The assay can be described thus: SCX-LUC in vitro assay (Scx-luciferase reporter). The assay is classed as cell-based. To be noted: Mus musculus.
Assay [4] deals with Tenomodulin (Tnmd) gene expression in rat tail tendon fascicles. The assay can be described thus: Ex vivo assay, Tnmd mRNA in tendon fascicles (qPCR). The assay is classed as cell-based, Sprague Dawley rat.
[5] abbreviates: Table 1, read-out: Ex vivo Col1a2 (EC50 uM).
The mark [6] stands for this setting: Table 1, read-out: Ex vivo SCX (EC50 uM).
Where [7] appears, read: Table 1, read-out: Ex vivo Tnmd (EC50 uM).
Where [8] appears, read: 96 h, Table 3, four days, read-out: Ex vivo Col1a2 (EC50 μM).
The mark [9] stands for this setting: 96 h, Table 3, four days, read-out: Ex vivo Scx (EC50 μM).
Setting [10] is: 96 h, Table 3, four days, read-out: Scx-Luc (EC50 μM).
Setting [11] is: 96 h, Table 3, four days, read-out: Ex vivo Tnmd (EC50 μM).

Read-outs that look alike come from different tables or passages of the source.

On to `O=C(Nc1nc2cccc(-c3ccc(OCc4ccc[n+]([O-])c4)cc3)n2n1)C1CC1` [reference compound], for which the EC50 was 0.4 µM in assay [1] (setting [5]); 0.36 µM in assay [2] (setting [6]); 0.02 µM in assay [3] (Table 1, read-out: Scx-Luc (EC50 uM)); 5.99 µM in assay [4] (setting [7]).
Take `Cc1cc(S(=O)(=O)NC2CC(O)(Cc3ccccc3)C2)ccc1-c1ccc2[nH]nc(N)c2c1C` (centres unmarked) [Example 51, 4-(3-amino-4-methyl-1H-indazol-5-yl)-N-(3-benzyl-3-hydroxycyclobutyl)-3-methylbenzenesulfonamide]: the EC50 in assay [1] (setting [8]) is 6.39 µM; in assay [2] (setting [9]), 6.98 µM; in assay [3] (setting [10]) it was 1.58 µM; in assay [4] (setting [11]) it was 6.8 µM.
The corresponding values for `Cc1cc(S(=O)(=O)N2CC[C@@H](O)C2)ccc1-c1ccc2[nH]nc(N)c2c1Cl` [Example 7, (R)-1-((4-(3-amino-4-chloro-1H-indazol-5-yl)-3-methylphenyl)sulfonyl)pyrrolidin-3-ol] are 3.31 µM, 5.35 µM, 2.02 µM and 0.463 µM.
The corresponding values for `Cc1cc(S(=O)(=O)N[C@@H]2COCC[C@H]2O)ccc1-c1ccc2[nH]nc(N)c2c1C` [Example 45, 4-(3-amino-4-methyl-1H-indazol-5-yl)-N-((3R,4R)-4-hydroxytetrahydro-2H-pyran-3-yl)-3-methylbenzenesulfonamide] are 2.41 µM, 4.44 µM, 1.25 µM and 2.85 µM.
The corresponding values for `Cc1cc(S(=O)(=O)N(C)C2CC(F)(F)C2)ccc1-c1ccc2[nH]nc(N)c2c1C` [Example 63, 4-(3-amino-4-methyl-1H-indazol-5-yl)-N-(3,3-difluorocyclobutyl)-N,3-dimethylbenzenesulfonamide] are 1.79 µM, 1.38 µM, 0.222 µM and 5.41 µM.
`COc1c(-c2ccc(S(=O)(=O)N[C@@H]3CCC[C@@H]3O)cc2C)ccc2[nH]nc(N)c12` [Example 73, 4-(3-amino-4-methoxy-1H-indazol-5-yl)-N-((1R,2S)-2-hydroxycyclopentyl)-3-methylbenzenesulfonamide]: the EC50 stood at 3.77 µM in assay [1] (setting [8]), 5.23 µM in assay [2] (setting [9]), 0.632 µM in assay [3] (setting [10]) and 6.51 µM in assay [4] (setting [11]).
The corresponding values for `Cc1cc(S(=O)(=O)NC2CCOCC2)ccc1-c1ccc2[nH]nc(N)c2c1C` [Example 21, 4-(3-amino-4-methyl-1H-indazol-5-yl)-3-methyl-N-(tetrahydro-2H-pyran-4-yl)benzenesulfonamide] are 5.32 µM, 3.7 µM, 1.26 µM and 6.64 µM.
The corresponding values for `Cc1cc(S(=O)(=O)N2CC(F)(F)C2)ccc1-c1ccc2[nH]nc(N)c2c1C` [Example 78, 5-(4-((3,3-difluoroazetidin-1-yl)sulfonyl)-2-methylphenyl)-4-methyl-1H-indazol-3-amine] are 1.16 µM, 4.57 µM, 2.1 µM and 1.89 µM.
Take `CC1(C)CN(C(=O)c2ccc(-c3cccc4nc(NC(=O)C5CC5)nn34)cc2)C1` [reference compound]: the EC50 is 3.62 µM in assay [1] (setting [5]), 3.56 µM in assay [2] (setting [6]), 1.42 µM in assay [3] (read-out: Scx-Luc (EC50 uM)) and 3.69 µM in assay [4] (setting [7]).
As to `Cc1cc(S(=O)(=O)NC2CCC(F)(F)CC2)ccc1-c1ccc2[nH]nc(N)c2c1C` [Example 43, 4-(3-amino-4-methyl-1H-indazol-5-yl)-N-(4,4-difluorocyclohexyl)-3-methylbenzenesulfonamide], the EC50 in assay [1] (setting [8]) was found to be 3.45 µM; in assay [2] (setting [9]) it was 3.37 µM; in assay [3] (setting [10]), 0.696 µM; in assay [4] (setting [11]), 4.87 µM.
As to `Cc1cc(S(=O)(=O)N2CC[C@H]2CO)ccc1-c1ccc2[nH]nc(N)c2c1C` [Example 10, (S)-(1-((4-(3-amino-4-methyl-1H-indazol-5-yl)-3-methylphenyl)sulfonyl)azetidin-2-yl)methanol], in assay [3] (setting [10]), the EC50 is 1.79 µM.
